Measurements taken from the supplement of paper PMC10307832.

How the values were obtained:
Experiment in all cases: relative viability (nuclei count vs DMSO), 5 days (fraction); higher = more cells survive
NCI-H1734 = test system: NCI-H1734
In short: (§1)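 Values are medians from duplicate plates. Each reflects relative viability, defined as the nuclei count of treated wells over that of vehicle wells. Lung cancer cell lines in 1536-well plates were pin-tool dosed one day after seeding with one drug alone or with a fixed anchor-drug dose plus five library-drug doses (not always all listed) in √10 steps, then fixed, stained and imaged at 4× after 5 days.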

RERF-LC-KJ = test system: RERF-LC-KJ
In short: as §1

NCI-H1975 = test system: NCI-H1975
In short: as §1

LCLC-97TM1 = test system: LCLC-97TM1
In short: as §1

PC-3 [JPC-3] = test system: PC-3 [JPC-3]
In short: as §1

NCI-H322M = test system: NCI-H322M
In short: as §1

NCI-H1650 = test system: NCI-H1650
In short: as §1

CAL-12T = test system: CAL-12T
In short: as §1

PC-14 = test system: PC-14
In short: as §1

HCC-827 = test system: HCC-827
In short: as §1

LK-2 = test system: LK-2
In short: as §1

NCI-H520 = test system: NCI-H520
In short: as §1

NCI-H2342 = test system: NCI-H2342
In short: as §1

NCI-H1755 = test system: NCI-H1755
In short: as §1

HCC-15 = test system: HCC-15
In short: as §1

NCI-H1355 = test system: NCI-H1355
In short: as §1

EKVX = test system: EKVX
In short: as §1

H3255 = test system: H3255
In short: as §1

NCI-H661 = test system: NCI-H661
In short: as §1

NCI-H2405 = test system: NCI-H2405
In short: as §1

NCI-H2228 = test system: NCI-H2228
In short: as §1

## Cc1sc2c(c1C)C(c1ccc(Cl)cc1)=N[C@@H](CC(=O)OC(C)(C)C)c1nnc(C)n1-2 [JQ1] + CC(=O)c1c(C)c2cnc(Nc3ccc(N4CCNCC4)cn3)nc2n(C2CCCC2)c1=O [Palbociclib] (partner 0.5 µM)
NCI-H1734; first compound 0.04 µM
  relative viability: 0.365
NCI-H1734; first compound 0.1265 µM
  relative viability: 0.334
NCI-H1734; first compound 0.4 µM
  relative viability: 0.313
NCI-H1734; first compound 1.265 µM
  relative viability: 0.279
NCI-H1734; first compound 4 µM
  relative viability: 0.303
RERF-LC-KJ; first compound 0.04 µM
  relative viability: 1.13
RERF-LC-KJ; first compound 0.1265 µM
  relative viability: 0.868
RERF-LC-KJ; first compound 0.4 µM
  relative viability: 0.887
RERF-LC-KJ; first compound 1.265 µM
  relative viability: 0.254
RERF-LC-KJ; first compound 4 µM
  relative viability: 0.246
NCI-H1975; first compound 0.04 µM
  relative viability: 0.607
NCI-H1975; first compound 0.1265 µM
  relative viability: 0.38
NCI-H1975; first compound 0.4 µM
  relative viability: 0.457
NCI-H1975; first compound 1.265 µM
  relative viability: 0.287
NCI-H1975; first compound 4 µM
  relative viability: 0.248
LCLC-97TM1; first compound 0.04 µM
  relative viability: 0.255
LCLC-97TM1; first compound 0.1265 µM
  relative viability: 0.159
LCLC-97TM1; first compound 0.4 µM
  relative viability: 0.15
LCLC-97TM1; first compound 1.265 µM
  relative viability: 0.0928
LCLC-97TM1; first compound 4 µM
  relative viability: 0.0931
PC-3 [JPC-3]; first compound 0.04 µM
  relative viability: 0.532
PC-3 [JPC-3]; first compound 0.1265 µM
  relative viability: 0.554
PC-3 [JPC-3]; first compound 0.4 µM
  relative viability: 0.513
PC-3 [JPC-3]; first compound 1.265 µM
  relative viability: 0.575
PC-3 [JPC-3]; first compound 4 µM
  relative viability: 0.438
NCI-H322M; first compound 0.04 µM
  relative viability: 0.477
NCI-H322M; first compound 0.1265 µM
  relative viability: 0.491
NCI-H322M; first compound 0.4 µM
  relative viability: 0.428
NCI-H322M; first compound 1.265 µM
  relative viability: 0.385
NCI-H322M; first compound 4 µM
  relative viability: 0.406
NCI-H1650; first compound 0.04 µM
  relative viability: 0.322
NCI-H1650; first compound 0.1265 µM
  relative viability: 0.264
NCI-H1650; first compound 0.4 µM
  relative viability: 0.256
NCI-H1650; first compound 1.265 µM
  relative viability: 0.111
NCI-H1650; first compound 4 µM
  relative viability: 0.134
CAL-12T; first compound 0.04 µM
  relative viability: 0.413
CAL-12T; first compound 0.1265 µM
  relative viability: 0.377
CAL-12T; first compound 0.4 µM
  relative viability: 0.226
CAL-12T; first compound 1.265 µM
  relative viability: 0.114
CAL-12T; first compound 4 µM
  relative viability: 0.233
PC-14; first compound 0.04 µM
  relative viability: 0.486
PC-14; first compound 0.1265 µM
  relative viability: 0.238
PC-14; first compound 0.4 µM
  relative viability: 0.221
PC-14; first compound 1.265 µM
  relative viability: 0.116
PC-14; first compound 4 µM
  relative viability: 0.104
HCC-827; first compound 0.04 µM
  relative viability: 0.528
HCC-827; first compound 0.1265 µM
  relative viability: 0.388
HCC-827; first compound 1.265 µM
  relative viability: 0.279
HCC-827; first compound 4 µM
  relative viability: 0.252
LK-2; first compound 0.04 µM
  relative viability: 0.718
LK-2; first compound 0.1265 µM
  relative viability: 0.702
LK-2; first compound 0.4 µM
  relative viability: 0.339
LK-2; first compound 1.265 µM
  relative viability: 0.151
LK-2; first compound 4 µM
  relative viability: 0.151
NCI-H520; first compound 0.04 µM
  relative viability: 0.197
NCI-H520; first compound 0.1265 µM
  relative viability: 0.196
NCI-H520; first compound 0.4 µM
  relative viability: 0.184
NCI-H520; first compound 1.265 µM
  relative viability: 0.154
NCI-H520; first compound 4 µM
  relative viability: 0.143
NCI-H2342; first compound 0.04 µM
  relative viability: 0.526
NCI-H2342; first compound 0.1265 µM
  relative viability: 0.501
NCI-H2342; first compound 0.4 µM
  relative viability: 0.535
NCI-H2342; first compound 1.265 µM
  relative viability: 0.574
NCI-H2342; first compound 4 µM
  relative viability: 0.538
NCI-H1755; first compound 0.04 µM
  relative viability: 0.434
NCI-H1755; first compound 0.1265 µM
  relative viability: 0.426
NCI-H1755; first compound 0.4 µM
  relative viability: 0.416
NCI-H1755; first compound 1.265 µM
  relative viability: 0.388
NCI-H1755; first compound 4 µM
  relative viability: 0.353
HCC-15; first compound 0.04 µM
  relative viability: 0.648
HCC-15; first compound 0.1265 µM
  relative viability: 0.585
HCC-15; first compound 0.4 µM
  relative viability: 0.64
HCC-15; first compound 1.265 µM
  relative viability: 0.561
HCC-15; first compound 4 µM
  relative viability: 0.395
NCI-H1355; first compound 0.04 µM
  relative viability: 0.375
NCI-H1355; first compound 0.1265 µM
  relative viability: 0.372
NCI-H1355; first compound 0.4 µM
  relative viability: 0.323
NCI-H1355; first compound 1.265 µM
  relative viability: 0.276
NCI-H1355; first compound 4 µM
  relative viability: 0.233
EKVX; first compound 0.04 µM
  relative viability: 0.429
EKVX; first compound 0.1265 µM
  relative viability: 0.34
EKVX; first compound 0.4 µM
  relative viability: 0.372
EKVX; first compound 1.265 µM
  relative viability: 0.368
EKVX; first compound 4 µM
  relative viability: 0.314
H3255; first compound 0.04 µM
  relative viability: 0.303
H3255; first compound 0.1265 µM
  relative viability: 0.321
H3255; first compound 0.4 µM
  relative viability: 0.283
H3255; first compound 1.265 µM
  relative viability: 0.247
H3255; first compound 4 µM
  relative viability: 0.228
NCI-H661; first compound 0.04 µM
  relative viability: 0.406
NCI-H661; first compound 0.1265 µM
  relative viability: 0.369
NCI-H661; first compound 0.4 µM
  relative viability: 0.424
NCI-H661; first compound 1.265 µM
  relative viability: 0.406
NCI-H661; first compound 4 µM
  relative viability: 0.397
NCI-H2405; first compound 0.04 µM
  relative viability: 0.571
NCI-H2405; first compound 0.4 µM
  relative viability: 0.522
NCI-H2405; first compound 1.265 µM
  relative viability: 0.471
NCI-H2405; first compound 4 µM
  relative viability: 0.311
NCI-H2228; first compound 0.04 µM
  relative viability: 0.657
NCI-H2228; first compound 0.1265 µM
  relative viability: 0.704
NCI-H2228; first compound 0.4 µM
  relative viability: 0.641
NCI-H2228; first compound 1.265 µM
  relative viability: 0.293
NCI-H2228; first compound 4 µM
  relative viability: 0.379
